Measurements taken from ChEMBL document CHEMBL4138123, “Design, synthesis and biological evaluation of novel pyrazolochalcones as potential modulators of PI3K/Akt/mTOR pathway and inducers of apoptosis in breast cancer cells” (Eur J Med Chem, 2017).

Legend:
[1] = tested on: SF-268; test: Cytotoxicity against human SF268 cells assessed as cell growth at 100 uM after 48 hrs by sulforhodamine B assay relative to control; format: functional; conditions: SF-268, 48 h, read-out: Activity
[2] = tested on: OVCAR-8; test: Cytotoxicity against human OVCAR8 cells assessed as cell growth at 10 uM after 48 hrs by sulforhodamine B assay relative to control; format: functional; conditions: OVCAR-8, 48 h, read-out: Activity
[3] = tested on: HCT-15; test: Cytotoxicity against human HCT15 cells assessed as growth inhibition after 48 hrs by sulforhodamine B assay; format: functional; conditions: HCT-15, 48 h
[4] = tested on: NCI-H23; test: Cytotoxicity against human NCI-H23 cells assessed as cell growth at 0.1 uM after 48 hrs by sulforhodamine B assay relative to control; format: functional; conditions: NCI-H23, 48 h, read-out: Activity
[5] = tested on: MOLT-4; test: Cytotoxicity against human MOLT4 cells assessed as cell growth at 0.01 uM after 48 hrs by sulforhodamine B assay relative to control; format: functional; conditions: MOLT-4, 48 h, read-out: Activity
[6] = tested on: MDA-MB-231; test: Cytotoxicity against human MDA-MB-231 cells assessed as cell growth at 0.01 uM after 48 hrs by sulforhodamine B assay relative to control; format: functional; conditions: MDA-MB-231, 48 h, read-out: Activity
[7] = tested on: UACC-257; test: Cytotoxicity against human UACC257 cells assessed as growth inhibition after 48 hrs by sulforhodamine B assay; format: functional; conditions: UACC-257, 48 h
[8] = tested on: HL-60(TB); test: Cytotoxicity against human HL-60(TB) cells assessed as cell growth at 10 uM after 48 hrs by sulforhodamine B assay relative to control; format: functional; conditions: HL-60, 48 h, read-out: Activity
[9] = tested on: A498; test: Cytotoxicity against human A498 cells assessed as cell growth at 10 uM after 48 hrs by sulforhodamine B assay relative to control; format: functional; conditions: A498, 48 h, read-out: Activity
[10] = tested on: OVCAR-8; test: Cytotoxicity against human OVCAR8 cells assessed as cell growth at 0.01 uM after 48 hrs by sulforhodamine B assay relative to control; format: functional; conditions: OVCAR-8, 48 h, read-out: Activity
[11] = tested on: SR; test: Cytotoxicity against human SR cells assessed as cell growth at 0.1 uM after 48 hrs by sulforhodamine B assay relative to control; format: functional; conditions: read-out: Activity
[12] = tested on: HCC 2998; test: Cytotoxicity against human HCC2998 cells assessed as cell growth at 10 uM after 48 hrs by sulforhodamine B assay relative to control; format: functional; conditions: HCC 2998, 48 h, read-out: Activity
[13] = tested on: UACC-62; test: Cytotoxicity against human UACC62 cells assessed as cell growth at 0.01 uM after 48 hrs by sulforhodamine B assay relative to control; format: functional; conditions: UACC-62, 48 h, read-out: Activity
[14] = tested on: MDA-MB-231; test: Cytotoxicity against human MDA-MB-231 cells assessed as growth inhibition after 48 hrs by MTT assay; format: functional, cell-based; conditions: MDA-MB-231, 48 h
[15] = tested on: OVCAR-8; test: Cytotoxicity against human OVCAR8 cells assessed as cell growth at 1 uM after 48 hrs by sulforhodamine B assay relative to control; format: functional; conditions: OVCAR-8, 48 h, read-out: Activity
[16] = tested on: MDA-MB-435; test: Cytotoxicity against human MDA-MB-435 cells assessed as cell growth at 0.1 uM after 48 hrs by sulforhodamine B assay relative to control; format: functional; conditions: MDA-MB-435, 48 h, read-out: Activity
[17] = tested on: COLO 205; test: Cytotoxicity against human COLO205 cells assessed as cell growth at 0.01 uM after 48 hrs by sulforhodamine B assay relative to control; format: functional; conditions: COLO 205, 48 h, read-out: Activity
[18] = tested on: SN12C; test: Cytotoxicity against human SN12C cells assessed as cell growth at 10 uM after 48 hrs by sulforhodamine B assay relative to control; format: functional; conditions: read-out: Activity
[19] = tested on: PC-3; test: Cytotoxicity against human PC3 cells assessed as cell growth at 1 uM after 48 hrs by sulforhodamine B assay relative to control; format: functional; conditions: PC-3, 48 h, read-out: Activity
[20] = tested on: MDA-MB-468; test: Cytotoxicity against human MDA-MB-468 cells assessed as cell growth at 0.1 uM after 48 hrs by sulforhodamine B assay relative to control; format: functional; conditions: MDA-MB-468, 48 h, read-out: Activity
[21] = tested on: SK-MEL-28; test: Cytotoxicity against human SK-MEL-28 cells assessed as cell growth at 0.01 uM after 48 hrs by sulforhodamine B assay relative to control; format: functional; conditions: SK-MEL-28, 48 h, read-out: Activity
[22] = tested on: BT-549; test: Cytotoxicity against human BT549 cells assessed as cell growth at 10 uM after 48 hrs by sulforhodamine B assay relative to control; format: functional; conditions: BT-549, 48 h, read-out: Activity
[23] = tested on: MDA-MB-231; test: Cytotoxicity against human MDA-MB-231 cells assessed as cell growth at 0.1 uM after 48 hrs by sulforhodamine B assay relative to control; format: functional; conditions: MDA-MB-231, 48 h, read-out: Activity
[24] = tested on: COLO 205; test: Cytotoxicity against human COLO205 cells assessed as growth inhibition after 48 hrs by sulforhodamine B assay; format: functional; conditions: COLO 205, 48 h
[25] = tested on: SK-MEL-28; test: Cytotoxicity against human SK-MEL-28 cells assessed as cell growth at 10 uM after 48 hrs by sulforhodamine B assay relative to control; format: functional; conditions: SK-MEL-28, 48 h, read-out: Activity
[26] = tested on: SF-268; test: Cytotoxicity against human SF268 cells assessed as cell growth at 0.01 uM after 48 hrs by sulforhodamine B assay relative to control; format: functional; conditions: SF-268, 48 h, read-out: Activity
[27] = tested on: MDA-MB-231; test: Cytotoxicity against human MDA-MB-231 cells assessed as cell growth at 10 uM after 48 hrs by sulforhodamine B assay relative to control; format: functional; conditions: MDA-MB-231, 48 h, read-out: Activity
[28] = tested on: K562; test: Cytotoxicity against human K562 cells assessed as cell growth at 100 uM after 48 hrs by sulforhodamine B assay relative to control; format: functional; conditions: K562, 48 h, read-out: Activity
[29] = tested on: Hs-578T; test: Cytotoxicity against human Hs 578T cells assessed as cell growth at 0.01 uM after 48 hrs by sulforhodamine B assay relative to control; format: functional; conditions: read-out: Activity
[30] = tested on: ACHN; test: Cytotoxicity against human ACHN cells assessed as cell growth at 0.1 uM after 48 hrs by sulforhodamine B assay relative to control; format: functional; conditions: read-out: Activity
[31] = tested on: MDA-MB-468; test: Cytotoxicity against human MDA-MB-468 cells assessed as cell growth at 0.01 uM after 48 hrs by sulforhodamine B assay relative to control; format: functional; conditions: MDA-MB-468, 48 h, read-out: Activity
[32] = tested on: NCI-H23; test: Cytotoxicity against human NCI-H23 cells assessed as cell growth at 1 uM after 48 hrs by sulforhodamine B assay relative to control; format: functional; conditions: NCI-H23, 48 h, read-out: Activity
[33] = tested on: KM12; test: Cytotoxicity against human KM12 cells assessed as cell growth at 10 uM after 48 hrs by sulforhodamine B assay relative to control; format: functional; conditions: KM12, 48 h, read-out: Activity
[34] = tested on: HCT-116; test: Cytotoxicity against human HCT116 cells assessed as cell growth at 100 uM after 48 hrs by sulforhodamine B assay relative to control; format: functional; conditions: HCT-116, 48 h, read-out: Activity
[35] = tested on: U-251; test: Cytotoxicity against human U251 cells assessed as growth inhibition after 48 hrs by sulforhodamine B assay; format: functional; conditions: U-251, 48 h
[36] = tested on: OVCAR-3; test: Cytotoxicity against human OVCAR3 cells assessed as cell growth at 10 uM after 48 hrs by sulforhodamine B assay relative to control; format: functional; conditions: OVCAR-3, 48 h, read-out: Activity

Structure (SMILES): COc1cc(-c2cc(/C=C/C(=O)c3ccc(F)c(F)c3)[nH]n2)cc(OC)c1OC
- growth at 100 µM [1]: 1%
- growth at 10 µM [2]: 4%
- LC50 [3]: > 100 µM
- TGI [3]: > 100 µM
- growth at 0.1 µM [4]: 92%
- growth at 0.01 µM [5]: 108%
- growth at 0.01 µM [6]: 94%
- LC50 [7]: > 100 µM
- TGI [7]: 6.28 µM
- growth at 10 µM [8]: -29%
- growth at 10 µM [9]: -14%
- growth at 0.01 µM [10]: 95%
- growth at 0.1 µM [11]: 106%
- growth at 10 µM [12]: 13%
- growth at 0.01 µM [13]: 97%
- IC50 [14]: 1.5 µM
- growth at 1 µM [15]: 89%
- growth at 0.1 µM [16]: 90%
- growth at 0.01 µM [17]: 101%
- growth at 10 µM [18]: 15%
- growth at 1 µM [19]: 70%
- growth at 0.1 µM [20]: 94%
- growth at 0.01 µM [21]: 102%
- growth at 10 µM [22]: 23%
- growth at 0.1 µM [23]: 96%
- LC50 [24]: 6 µM
- TGI [24]: 3.19 µM
- growth at 10 µM [25]: 32%
- growth at 0.01 µM [26]: 94%
- growth at 10 µM [27]: -38%
- growth at 100 µM [28]: -7%
- growth at 0.01 µM [29]: 98%
- growth at 0.1 µM [30]: 106%
- growth at 0.01 µM [31]: 90%
- growth at 1 µM [32]: 90%
- growth at 10 µM [33]: 3%
- growth at 100 µM [34]: -52%
- LC50 [35]: > 100 µM
- TGI [35]: 15.7 µM
- growth at 10 µM [36]: -24%

Structure (SMILES): COc1ccc(-c2cc(/C=C/C(=O)c3ccc(OC)c(OC)c3)[nH]n2)cc1
- growth at 100 µM [1]: -63%
- growth at 10 µM [2]: 1%
- GI50 [3]: 1.35 µM
- LC50 [3]: 9.41 µM
- TGI [3]: 3.56 µM
- growth at 0.1 µM [4]: 101%
- growth at 0.01 µM [5]: 105%
- growth at 0.01 µM [6]: 98%
- GI50 [7]: 1.73 µM
- LC50 [7]: 7.72 µM
- TGI [7]: 3.65 µM
- growth at 10 µM [8]: -21%
- growth at 10 µM [9]: -57%
- growth at 0.01 µM [10]: 93%
- growth at 0.1 µM [11]: 106%
- growth at 10 µM [12]: -68%
- growth at 0.01 µM [13]: 99%
- IC50 [14]: 0.6 µM
- growth at 1 µM [15]: 75%
- growth at 0.1 µM [16]: 95%
- growth at 0.01 µM [17]: 103%
- growth at 10 µM [18]: -58%
- growth at 1 µM [19]: 71%
- growth at 0.1 µM [20]: 90%
- growth at 0.01 µM [21]: 101%
- growth at 10 µM [22]: -70%
- growth at 0.1 µM [23]: 91%
- GI50 [24]: 1.76 µM
- LC50 [24]: 6.16 µM
- TGI [24]: 3.3 µM
- growth at 10 µM [25]: -95%
- growth at 0.01 µM [26]: 101%
- growth at 10 µM [27]: -17%
- growth at 100 µM [28]: -26%
- growth at 0.01 µM [29]: 96%
- growth at 0.1 µM [30]: 96%
- growth at 0.01 µM [31]: 87%
- growth at 1 µM [32]: 98%
- growth at 10 µM [33]: -72%
- growth at 100 µM [34]: -100%
- GI50 [35]: 1.11 µM
- LC50 [35]: 4.97 µM
- TGI [35]: 2.34 µM
- growth at 10 µM [36]: -95%
